From patent US7419780B2, “Methods and assays for screening protein targets” (The Trustees of Columbia University in the City of New York, priority 2000, dated 2008)

Legend:
Assay type in all cases: cell-based, S. cerevisiae
Settings in all cases: 1 uM small molecule, difference to activity without small molecule, average of two trials
[1] = biological target: T1, LexA (GSG)2mDHFR / B42 rGR2 (UniProt P00375+P06536, C656G/F620S); experiment: β-galactosidase activity assay, strain V502Y
T1 construct: rat Glucocorticoid Receptor (aa 524-795) with point mutations; expressed in transfected cells; host or cells: S. cerevisiae FY250
T1 sequence (P00375 1-187): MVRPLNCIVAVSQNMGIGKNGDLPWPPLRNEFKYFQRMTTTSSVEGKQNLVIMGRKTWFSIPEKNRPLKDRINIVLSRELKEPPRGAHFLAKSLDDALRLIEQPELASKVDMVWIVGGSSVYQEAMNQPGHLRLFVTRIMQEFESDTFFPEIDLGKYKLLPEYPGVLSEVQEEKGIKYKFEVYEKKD
T1 sequence (P06536 524-795 F620S/C656G limits assumed): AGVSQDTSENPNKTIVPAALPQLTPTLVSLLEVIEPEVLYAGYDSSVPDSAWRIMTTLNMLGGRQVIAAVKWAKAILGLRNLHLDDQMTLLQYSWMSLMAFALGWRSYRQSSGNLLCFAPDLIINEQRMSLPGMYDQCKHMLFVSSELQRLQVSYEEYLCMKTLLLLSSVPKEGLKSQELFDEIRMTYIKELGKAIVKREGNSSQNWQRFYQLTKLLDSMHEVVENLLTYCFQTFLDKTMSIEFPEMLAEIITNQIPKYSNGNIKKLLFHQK
Text: (§1) Table III explains the components of each strain. Each strain was constructed from the parent yeast strain FY250 and also contains the pMW106 plasmid, which has the LacZ reporter gene that is turned on only in when the LexA DNA binding domain and the B42 activation are brought in tot he vicinity of each other. We use several different strains because we use DHFR from two different species, mDHFR is from murine, while eDHFR is from E. coli. We are asl oable to switch the small moleculebinding domains. For example, the strain containing LexA-eDHFR with B42-rGH2 is a different strain and behaves differently from the strain containing LexA-rGR2 with B42-eDHFR. We also put in short 6 amino acid linkers between the two domains of our protein chimeras and thus these are different strain as well.
(§2) The results in Table IV are averages of two separate trials. Each strain was examined with small molecules and without small molecules. The absolute activity is given as the β-galactisidase activity […]. The average β-galactosidse activity for a strain without small molecule (i.e. the negative control) was about 100 β-galactosidase units.

LexA eDHFR / B42 rGR2 = biological target: T2, LexA eDHFR / B42 rGR2 (UniProt P06536+P0ABQ4, C656G/F620S); experiment: β-galactosidase activity assay, strain V493Y
T2 construct: rat Glucocorticoid Receptor (aa 524-795) with point mutations; expressed in transfected cells; host or cells: S. cerevisiae FY250
T2 sequence (P0ABQ4 1-159): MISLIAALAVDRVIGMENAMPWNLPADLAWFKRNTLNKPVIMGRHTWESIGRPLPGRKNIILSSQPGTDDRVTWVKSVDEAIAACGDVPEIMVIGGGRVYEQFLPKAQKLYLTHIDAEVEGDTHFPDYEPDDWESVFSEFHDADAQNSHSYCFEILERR
T2 sequence (P06536 524-795 F620S/C656G limits assumed): T1 sequence (P06536 524-795 F620S/C656G limits assumed)
Text: as §1, §2

[2] = biological target: T3, LexA mDHFR / B42 (GSG)rGR2 (UniProt P00375+P06536, C656G/F620S); experiment: β-galactosidase activity assay, strain V497Y
T3 construct: rat Glucocorticoid Receptor (aa 524-795) with point mutations; expressed in transfected cells; host or cells: S. cerevisiae FY250
T3 sequence (P00375 1-187): T1 sequence (P00375 1-187)
T3 sequence (P06536 524-795 F620S/C656G limits assumed): T1 sequence (P06536 524-795 F620S/C656G limits assumed)
Text: as §1, §2

[3] = biological target: T4, LexA (GSG)2eDHFR / B42 rGR2 (UniProt P06536+P0ABQ4, C656G/F620S); experiment: β-galactosidase activity assay, strain V498Y
T4 construct: rat Glucocorticoid Receptor (aa 524-795) with point mutations; expressed in transfected cells; host or cells: S. cerevisiae FY250
T4 sequence (P0ABQ4 1-159): T2 sequence (P0ABQ4 1-159)
T4 sequence (P06536 524-795 F620S/C656G limits assumed): T1 sequence (P06536 524-795 F620S/C656G limits assumed)
Text: as §1, §2

[4] = biological target: T5, LexA (GSG)2rGR2 / B42 (GSG)2eDHFR (UniProt P06536+P0ABQ4, C656G/F620S); experiment: β-galactosidase activity assay, strain V510Y
T5 construct: rat Glucocorticoid Receptor (aa 524-795) with point mutations; expressed in transfected cells; host or cells: S. cerevisiae FY250
T5 sequence (P06536 524-795 F620S/C656G limits assumed): T1 sequence (P06536 524-795 F620S/C656G limits assumed)
T5 sequence (P0ABQ4 1-159): T2 sequence (P0ABQ4 1-159)
Text: as §1, §2

[5] = biological target: T6, LexA (GSG)2mDHFR / B42 gly6rGR2 (UniProt P00375+P06536, C656G/F620S); experiment: β-galactosidase activity assay, strain V503Y
T6 construct: expressed in transfected cells; host or cells: S. cerevisiae FY250 with pMW106 lacZ reporter
T6 sequence (P00375 1-187): T1 sequence (P00375 1-187)
T6 sequence (P06536 524-795 F620S/C656G limits assumed): T1 sequence (P06536 524-795 F620S/C656G limits assumed)
Text: as §1, §2

[6] = biological target: T7, LexA rGR2 / B42 (GSG)2mDHFR (UniProt P00375+P06536, C656G/F620S); experiment: β-galactosidase activity assay, strain V511Y
T7 construct: expressed in transfected cells; host or cells: S. cerevisiae FY250 with pMW106 lacZ reporter
T7 sequence (P06536 524-795 F620S/C656G limits assumed): T1 sequence (P06536 524-795 F620S/C656G limits assumed)
T7 sequence (P00375 1-187): T1 sequence (P00375 1-187)
Text: as §1, §2

LexA mDHFR / B42 rGR2 = biological target: T8, LexA mDHFR / B42 rGR2 (UniProt P00375+P06536, C656G/F620S); experiment: β-galactosidase activity assay, strain V495Y
T8 construct: rat Glucocorticoid Receptor (aa 524-795) with point mutations; expressed in transfected cells; host or cells: S. cerevisiae FY250
T8 sequence (P00375 1-187): T1 sequence (P00375 1-187)
T8 sequence (P06536 524-795 F620S/C656G limits assumed): T1 sequence (P06536 524-795 F620S/C656G limits assumed)
Text: as §1, §2

[7] = biological target: T9, LexA (GSG)2eDHFR / B42 (GSG)rGR2 (UniProt P06536+P0ABQ4, C656G/F620S); experiment: β-galactosidase activity assay, strain V501Y
T9 construct: rat Glucocorticoid Receptor (aa 524-795) with point mutations; expressed in transfected cells; host or cells: S. cerevisiae FY250
T9 sequence (P0ABQ4 1-159): T2 sequence (P0ABQ4 1-159)
T9 sequence (P06536 524-795 F620S/C656G limits assumed): T1 sequence (P06536 524-795 F620S/C656G limits assumed)
Text: as §1, §2

LexA rGR2 / B42 eDHFR = biological target: T10, LexA rGR2 / B42 eDHFR (UniProt P06536+P0ABQ4, C656G/F620S); experiment: β-galactosidase activity assay, strain V505Y
T10 construct: rat Glucocorticoid Receptor (aa 524-795) with point mutations; expressed in transfected cells; host or cells: S. cerevisiae FY250
T10 sequence (P06536 524-795 F620S/C656G limits assumed): T1 sequence (P06536 524-795 F620S/C656G limits assumed)
T10 sequence (P0ABQ4 1-159): T2 sequence (P0ABQ4 1-159)
Text: as §1, §2

Question: Which results are given for C[C@@H]1C[C@H]2C3CCC4=CC(=O)C=C[C@]4(C)[C@@]3(F)[C@@H](O)C[C@]2(C)[C@@]1(O)C(=O)NCCSCc1cccc(CSCC[C@H](NC(=O)c2ccc(N(C)Cc3cnc4nc(N)nc(N)c4n3)cc2)C(=O)O)c1 (stereo partly shown) [DM1]?
Answer: B-gal activity [1]: 21 β-galactosidase units; B-gal activity (LexA eDHFR / B42 rGR2): 5753 β-galactosidase units; B-gal activity [2]: −8 β-galactosidase units; B-gal activity [3]: 4735 β-galactosidase units; B-gal activity [4]: 601 β-galactosidase units; B-gal activity [5]: −5 β-galactosidase units; B-gal activity [6]: −113 β-galactosidase units; B-gal activity (LexA mDHFR / B42 rGR2): 15 β-galactosidase units; B-gal activity [7]: 4662 β-galactosidase units; B-gal activity (LexA rGR2 / B42 eDHFR): 557 β-galactosidase units
